Consider seven molecules from patent publication US20260308109A1 (priority 2022, published 2026).

Experiment [1] addresses T1, 5-HT2A (Homo sapiens, UniProt P28223). In words: biochemical. It counts as binding. Also noted: expressed in transfected cells; host or cells: HEK293 (membranes).
Experiment [2] concerns the target T2, 5-HT2B (Homo sapiens, UniProt P41595). The experiment can be described thus: In vitro receptor binding ([3H]-LSD), 5-HT2B. Also noted: expressed in transfected cells; host or cells: HEK293 (membranes). The following applies: for Binding ([3H]-LSD) % Inh: 5-HT2B, HEK293 membrane, radioligand 3H-LSD; for affinity at 5-HT2B: in words.
Experiment [3] has as its target T1, 5-HT2A. The experiment can be described thus: cell-based. The format is cell-based. More on the design: expressed in transfected cells; host or cells: HEK293; Emax: dose or concentration left out as unconfirmed.
Experiment [4] has as its target T3, 5-HT2C (Homo sapiens, UniProt P28335).
T3 sequence (P28335 33-458): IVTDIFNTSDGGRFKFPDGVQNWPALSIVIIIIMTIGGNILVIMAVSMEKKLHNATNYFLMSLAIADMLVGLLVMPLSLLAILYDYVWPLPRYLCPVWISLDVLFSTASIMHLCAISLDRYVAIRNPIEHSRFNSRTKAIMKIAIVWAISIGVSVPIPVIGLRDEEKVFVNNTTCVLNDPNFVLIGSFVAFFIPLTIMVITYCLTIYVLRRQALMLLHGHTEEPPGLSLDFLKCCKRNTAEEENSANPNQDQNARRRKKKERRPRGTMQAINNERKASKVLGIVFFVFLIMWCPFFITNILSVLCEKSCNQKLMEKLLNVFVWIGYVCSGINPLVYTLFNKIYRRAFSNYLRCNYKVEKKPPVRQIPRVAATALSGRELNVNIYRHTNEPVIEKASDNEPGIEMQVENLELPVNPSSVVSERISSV
In words: In vitro receptor binding ([3H]-LSD), 5-HT2C. More on the design: expressed in transfected cells; host or cells: HEK293 (membranes). The following applies: for Binding ([3H]-LSD) % Inh: 5-HT2C, HEK293 membrane, radioligand 3H-LSD; for affinity at 5-HT2C: in words; for affinity selectivity for 5-HT2C over 5-HT2A: ratio of Ki.

In experiment [5] the target is T3, 5-HT2C. In words: cell-based. Also noted: expressed in transfected cells; host or cells: HEK293; Emax: dose or concentration left out as unconfirmed.
The target of experiment [6] is T2, 5-HT2B. In words: cell-based. It counts as cell-based. More on the design: expressed in transfected cells; host or cells: HEK293; Emax: dose or concentration left out as unconfirmed.
For experiment [7], the system named is TNF-α induced inflammation. The following applies: Yu et al. 2008; cited from earlier work.
In another experiment the test system is 5-HT2A receptor. The following applies: Flanagan et al. 2020; cited from earlier work.

Like-named read-outs stand apart in the source and are kept apart here. Bounds are passed on as bounds.

T2 sequence (P41595 whole entry): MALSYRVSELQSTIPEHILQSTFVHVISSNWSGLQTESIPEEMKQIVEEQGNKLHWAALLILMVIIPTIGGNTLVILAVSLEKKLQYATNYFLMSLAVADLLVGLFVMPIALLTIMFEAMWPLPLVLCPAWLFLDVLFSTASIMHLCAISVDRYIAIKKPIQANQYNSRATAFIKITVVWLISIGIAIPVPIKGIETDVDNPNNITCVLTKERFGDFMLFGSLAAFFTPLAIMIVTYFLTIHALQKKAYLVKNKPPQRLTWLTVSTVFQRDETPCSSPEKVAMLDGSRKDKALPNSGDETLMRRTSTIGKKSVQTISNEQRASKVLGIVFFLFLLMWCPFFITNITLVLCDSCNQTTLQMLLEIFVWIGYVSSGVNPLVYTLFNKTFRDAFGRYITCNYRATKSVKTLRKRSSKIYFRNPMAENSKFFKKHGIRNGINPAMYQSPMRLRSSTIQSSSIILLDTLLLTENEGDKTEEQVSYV
T1 sequence (P28223 whole entry): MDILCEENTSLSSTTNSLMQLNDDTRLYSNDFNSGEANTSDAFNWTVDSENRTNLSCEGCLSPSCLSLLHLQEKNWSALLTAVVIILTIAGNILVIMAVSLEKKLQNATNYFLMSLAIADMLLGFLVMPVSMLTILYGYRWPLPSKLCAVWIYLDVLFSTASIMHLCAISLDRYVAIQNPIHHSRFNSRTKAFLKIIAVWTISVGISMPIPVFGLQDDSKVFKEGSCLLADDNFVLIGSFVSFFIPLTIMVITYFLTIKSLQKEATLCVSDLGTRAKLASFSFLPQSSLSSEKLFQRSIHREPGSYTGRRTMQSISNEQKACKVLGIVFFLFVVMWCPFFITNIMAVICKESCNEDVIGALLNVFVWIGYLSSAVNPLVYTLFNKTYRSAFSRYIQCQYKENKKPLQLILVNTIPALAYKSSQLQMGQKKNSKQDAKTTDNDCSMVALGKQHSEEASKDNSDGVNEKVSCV

Consider `COc1cc(I)c(OC)c2c1C(CN)C2` (stereo not drawn) [Compound 2, (3-iodo-2,5-dimethoxybicyclo[4.2.0]octa-1,3,5-trien-7-yl)methanamine], for which the figures for the “Binding ([3H]-LSD) % Inh” value at 5-HT2A [1], on 5-HT2B [2] and on 5-HT2C [4] were 2A: 17 nM (96%), 77% and 96%, respectively. Further, the Ki (in general, a measure of affinity in units of concentration, obtained from inhibition or displacement) is 17 nM on 5-HT2A [1], 28 nM on 5-HT2B [2] and 3 nM on 5-HT2C [4]. Moreover, the “affinity at 5-HT2A” value at 5-HT2A [1] was “low nanomolar affinity”. At 5-HT2A [1], the “affinity selectivity for 5-HT2A over 5-HT2B” value is “approximately 1.6 fold”. In addition, the “affinity at 5-HT2B” value at 5-HT2B [2] is recorded as “low nanomolar affinity”. For the same molecule, the Bottom at 5-HT2A [3] is recorded as 5.304 % of control; on 5-HT2C [5] it was 3.427 % of control; on 5-HT2B [6], 3.780 % of control. Further, the HillSlope at 5-HT2A [3] stood at 1.338; at 5-HT2C [5] it was 1.279; at 5-HT2B [6] it was 1.531. In addition, the “functional selectivity for 5-HT2A over 5-HT2C” value at 5-HT2A [3] is reported as “approximately 4 fold”. For the same molecule, the EC50 (as a rule, the concentration that produces a half-maximal response) on 5-HT2A [3] (EC50) was 10.1 nM; at 5-HT2A [3] (IP-One EC50) it was 10 nM; on 5-HT2C [5] (EC50) it was 58 nM; at 5-HT2C [5] (IP-One EC50), 41 nM; on 5-HT2B [6] (EC50) it was 89.1 nM; at 5-HT2B [6] (IP-One EC50) it was greater than 300 nM. For the same molecule, the Emax on 5-HT2A [3] (HEK293, read-out: IP-One % MAX) was 127%; at 5-HT2A [3] (read-out: Top), 124%; on 5-HT2C [5] (HEK293, read-out: IP-One % MAX), 122%; on 5-HT2C [5] (read-out: Top) it was 136%; on 5-HT2B [6] (HEK293, read-out: IP-One % MAX), 49%; on 5-HT2B [6] (read-out: Top), 56.2%. The “affinity at 5-HT2C” value at 5-HT2C [4] is given as “low nanomolar affinity”. Further, the “affinity selectivity for 5-HT2C over 5-HT2A” value on 5-HT2C [4] is “approximately 6 fold”. For the same molecule, on 5-HT2B [6], the “functional activity at 5-HT2B” value was “minimal functional activity”.

As for `COc1cc(Br)c(OC)c2c1[C@H](CN)C2` [Compound 2C-BCB], the “effect on TNF-α induced inflammation” value in experiment [7] is listed as “same effect, albeit slightly less potent”.

With `COc1ccc(OC)c(CCN)c1` [Compound 2C-H, 2,5-dimethoxyphenethylamine], the anti-inflammatory pharmacophore entry in the experiment on 5-HT2A receptor is listed as “primary pharmacophore for anti-inflammatory phenethylamine 5-HT2A receptor agonists”.

`CCc1cc(OC)c2c(c1OC)CC2CN` (stereo not drawn) [Compound 4, (3-ethyl-2,5-dimethoxybicyclo[4.2.0]octa-1,3,5-trien-7-yl)methanamine]: the entries for the “Binding ([3H]-LSD) % Inh” value on 5-HT2A [1], on 5-HT2B [2] and on 5-HT2C [4] were 2A: 26 nM (90%), 73% and 89%, respectively. The Ki amounted to 26 nM at 5-HT2A [1], 43 nM on 5-HT2B [2] and 4 nM at 5-HT2C [4]. The “affinity at 5-HT2A” value on 5-HT2A [1] was “low nanomolar affinity”. Also, the “affinity selectivity for 5-HT2A over 5-HT2B” value at 5-HT2A [1] is given as “approximately 1.6 fold”. Moreover, the “affinity at 5-HT2B” value on 5-HT2B [2] is on record as “low nanomolar affinity”. The Bottom is on record as −0.4425 % of control at 5-HT2A [3], 1.236 % of control at 5-HT2C [5] and −0.2984 % of control at 5-HT2B [6]. Besides, the figures for the HillSlope at 5-HT2A [3], on 5-HT2C [5] and on 5-HT2B [6] were 1.033, 1.410 and 1.088, respectively. Further, the “functional selectivity for 5-HT2A over 5-HT2B” value at 5-HT2A [3] is on record as “approximately 17.5 fold”. The “functional selectivity for 5-HT2A over 5-HT2C” value on 5-HT2A [3] is “approximately 2.75 fold”. Further, the EC50 on 5-HT2A [3] (EC50) came out at 3.77 nM; at 5-HT2A [3] (IP-One EC50), 4 nM; on 5-HT2C [5] (EC50) it was 10.8 nM; on 5-HT2C [5] (IP-One EC50) it was 11 nM; on 5-HT2B [6] (EC50), 27.4 nM; on 5-HT2B [6] (IP-One EC50), 70 nM. The Emax at 5-HT2A [3] (HEK293, read-out: IP-One % MAX) is 114%; on 5-HT2A [3] (read-out: Top) it was 108%; on 5-HT2C [5] (HEK293, read-out: IP-One % MAX) it was 104%; at 5-HT2C [5] (read-out: Top), 102%; at 5-HT2B [6] (HEK293, read-out: IP-One % MAX), 70%; on 5-HT2B [6] (read-out: Top), 72.8%. Besides, the “affinity at 5-HT2C” value on 5-HT2C [4] is on record as “low nanomolar affinity”. Besides, at 5-HT2C [4], the “affinity selectivity for 5-HT2C over 5-HT2A” value is recorded as “approximately 6.5 fold”. In addition, on 5-HT2B [6], the “functional activity at 5-HT2B” value is “significant functional activity”.

Consider `COc1cc(CC(C)C)c(OC)c2c1C(CN)C2` (stereo not drawn) [Compound 8, (3-isobutyl-2,5-dimethoxybicyclo[4.2.0]octa-1,3,5-trien-7-yl)methanamine], for which the “Binding ([3H]-LSD) % Inh” value at 5-HT2A [1] is 2A: 133 nM (65%); at 5-HT2B [2], 29%; on 5-HT2C [4] it was 93%. Besides, the values for the Ki on 5-HT2A [1], on 5-HT2B [2] and on 5-HT2C [4] were 133 nM, greater than 95 nM and 4 nM, respectively. In addition, the Bottom is 2.988 % of control on 5-HT2A [3], 2.175 % of control at 5-HT2C [5] and −0.5387 % of control on 5-HT2B [6]. Also, the HillSlope at 5-HT2A [3] stood at 1.426; at 5-HT2C [5], 1.285; at 5-HT2B [6], 0.5893. The “functional selectivity for 5-HT2A over 5-HT2B” value on 5-HT2A [3] is “approximately 148.5 fold”. Moreover, on 5-HT2A [3], the “functional selectivity for 5-HT2A over 5-HT2C” value is recorded as “approximately 4.5 fold”. Moreover, the concentration giving a half-maximal response (EC50) on 5-HT2A [3] (EC50) stood at 2.4 nM; at 5-HT2A [3] (IP-One EC50) it was 2 nM; at 5-HT2C [5] (EC50), 8.73 nM; at 5-HT2C [5] (IP-One EC50), 9 nM; at 5-HT2B [6] (EC50), 261000 nM; on 5-HT2B [6] (IP-One EC50) it was 297 nM. The Emax came out at 113% at 5-HT2A [3] (HEK293, read-out: IP-One % MAX); 120% at 5-HT2A [3] (read-out: Top); 117% on 5-HT2C [5] (HEK293, read-out: IP-One % MAX); 120% at 5-HT2C [5] (read-out: Top); 51% on 5-HT2B [6] (HEK293, read-out: IP-One % MAX); 51.2% on 5-HT2B [6] (read-out: Top). For the same molecule, the “affinity at 5-HT2C” value on 5-HT2C [4] was “low nanomolar affinity”. Further, the “affinity selectivity for 5-HT2C over 5-HT2A” value on 5-HT2C [4] is reported as “approximately 33 fold”. Besides, the “functional activity at 5-HT2B” value on 5-HT2B [6] is recorded as “moderate functional activity”.

As to `CC1CC(C)N1C(=O)[C@@H]1C=C2c3cccc4[nH]cc(c34)C[C@H]2N(C)C1` (stereo partly drawn) [LA-SS-Az, lysergic acid 2,4-dimethylazetidide], in experiment [7], the “effect on TNF-α induced inflammation” value is given as “same effect, albeit slightly less potent”.

For `CCN(CC)C(=O)[C@@H]1C=C2c3cccc4[nH]cc(c34)C[C@H]2N(C)C1` [LSD, lysergic acid diethylamide], in experiment [7], the “effect on TNF-α induced inflammation” value was “same effect, albeit slightly less potent”.
